{
  "source": "ChEMBL document CHEMBL1201862",
  "about": "“PubChem BioAssay data set” (2004)",
  "key": {"[1]": {"target": "T1, Ubiquitin-conjugating enzyme E2 N (Homo sapiens, UniProt P61088)", "T1 sequence (P61088 whole entry)": "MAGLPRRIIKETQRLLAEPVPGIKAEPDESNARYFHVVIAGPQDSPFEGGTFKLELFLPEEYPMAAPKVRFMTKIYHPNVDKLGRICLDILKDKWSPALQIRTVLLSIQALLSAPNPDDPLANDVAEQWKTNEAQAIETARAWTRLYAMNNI", "format": "functional"}, "BJ [2]": {"system": "BJ", "test": "cytotoxicity toward BJ-TERT-LT-ST fibroblasts, dose response, cell-based, RAS-independent, luminescence (AID 1935);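 note: BJ fibroblasts immortalized with TERT plus LT and ST oncogenes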", "format": "functional", "conditions": "Homo sapiens"}, "Melanocortin receptor 4": {"target": "Melanocortin receptor 4 (Homo sapiens, UniProt P32245)", "sequence (P32245 whole entry)": "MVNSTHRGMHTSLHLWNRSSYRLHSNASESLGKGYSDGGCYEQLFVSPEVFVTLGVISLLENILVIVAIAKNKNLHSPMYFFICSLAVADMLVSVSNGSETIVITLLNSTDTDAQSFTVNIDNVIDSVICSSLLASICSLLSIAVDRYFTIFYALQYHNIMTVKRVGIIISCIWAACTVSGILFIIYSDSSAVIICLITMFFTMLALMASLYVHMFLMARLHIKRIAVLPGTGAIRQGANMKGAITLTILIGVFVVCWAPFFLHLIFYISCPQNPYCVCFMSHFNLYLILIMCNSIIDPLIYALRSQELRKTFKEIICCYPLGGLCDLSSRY", "format": "functional, cell-based"}, "HEK293 [3]": {"system": "HEK293", "test": "NOD1 signaling inhibitors, primary screen, cell-based, luminescence, uHTS (AID 1578)", "format": "functional", "conditions": "Homo sapiens"}, "HEK293 [4]": {"system": "HEK293", "test": "cells", "format": "functional, cell-based", "conditions": "Homo sapiens"}, "[5]": {"target": "T2, DNA repair protein RAD52 homolog (Homo sapiens, UniProt P43351)", "T2 sequence (P43351 whole entry)": "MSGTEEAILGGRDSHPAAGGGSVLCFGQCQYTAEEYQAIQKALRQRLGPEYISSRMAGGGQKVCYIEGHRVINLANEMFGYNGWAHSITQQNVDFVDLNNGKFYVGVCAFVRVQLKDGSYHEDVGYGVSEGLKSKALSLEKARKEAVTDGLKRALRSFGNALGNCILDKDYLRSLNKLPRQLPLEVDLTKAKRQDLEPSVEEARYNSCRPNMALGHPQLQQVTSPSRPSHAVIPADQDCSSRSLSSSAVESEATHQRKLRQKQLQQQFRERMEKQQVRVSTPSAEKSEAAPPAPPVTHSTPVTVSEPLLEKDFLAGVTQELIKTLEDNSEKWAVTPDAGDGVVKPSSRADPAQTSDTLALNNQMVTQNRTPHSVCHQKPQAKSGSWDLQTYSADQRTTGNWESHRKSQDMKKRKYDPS", "format": "functional, biochemical"}, "[6]": {"target": "Heat shock protein HSP 90-alpha (Homo sapiens, UniProt P07900)", "format": "functional, organism-based"}, "[7]": {"target": "T3, Apoptotic protease-activating factor 1 (Homo sapiens, UniProt O14727)", "T3 sequence (O14727 whole entry)": "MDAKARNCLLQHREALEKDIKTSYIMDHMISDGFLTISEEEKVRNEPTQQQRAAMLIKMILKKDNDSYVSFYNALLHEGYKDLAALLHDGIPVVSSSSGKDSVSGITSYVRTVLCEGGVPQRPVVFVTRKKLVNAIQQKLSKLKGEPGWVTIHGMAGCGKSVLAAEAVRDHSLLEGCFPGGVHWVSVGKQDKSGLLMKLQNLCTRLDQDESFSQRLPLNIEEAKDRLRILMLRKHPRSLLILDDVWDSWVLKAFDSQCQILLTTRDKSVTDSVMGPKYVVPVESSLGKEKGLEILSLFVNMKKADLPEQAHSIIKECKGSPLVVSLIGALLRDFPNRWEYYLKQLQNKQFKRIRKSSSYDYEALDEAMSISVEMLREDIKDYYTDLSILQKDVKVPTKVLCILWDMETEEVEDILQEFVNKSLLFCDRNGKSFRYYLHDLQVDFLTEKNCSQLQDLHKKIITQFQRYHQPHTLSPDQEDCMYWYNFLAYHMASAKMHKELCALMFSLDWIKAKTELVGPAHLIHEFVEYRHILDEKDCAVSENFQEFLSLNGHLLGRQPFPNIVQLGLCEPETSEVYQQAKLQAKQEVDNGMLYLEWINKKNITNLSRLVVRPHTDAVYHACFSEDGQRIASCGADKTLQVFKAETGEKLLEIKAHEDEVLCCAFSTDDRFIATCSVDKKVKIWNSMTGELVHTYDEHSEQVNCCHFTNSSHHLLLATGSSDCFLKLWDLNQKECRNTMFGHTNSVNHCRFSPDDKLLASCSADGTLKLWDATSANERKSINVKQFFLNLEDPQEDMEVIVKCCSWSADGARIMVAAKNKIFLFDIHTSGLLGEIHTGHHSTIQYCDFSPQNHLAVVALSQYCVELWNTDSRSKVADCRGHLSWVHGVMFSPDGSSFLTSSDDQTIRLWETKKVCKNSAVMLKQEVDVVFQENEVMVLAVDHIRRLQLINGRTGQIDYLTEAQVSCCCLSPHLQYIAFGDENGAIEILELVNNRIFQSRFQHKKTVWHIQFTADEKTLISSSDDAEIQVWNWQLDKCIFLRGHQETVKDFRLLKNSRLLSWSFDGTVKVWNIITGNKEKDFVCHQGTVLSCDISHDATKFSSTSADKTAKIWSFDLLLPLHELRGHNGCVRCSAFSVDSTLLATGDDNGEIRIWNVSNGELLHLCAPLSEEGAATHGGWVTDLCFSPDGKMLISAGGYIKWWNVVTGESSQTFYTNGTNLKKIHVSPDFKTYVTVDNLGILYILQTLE", "format": "functional"}, "INS1": {"system": "INS1", "test": "beta cell apoptosis inhibitors, cytokine rescue, dose response, luminescence, retest (AID 449756);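 note: cell death triggered by IL-1 beta plus TNF-alpha plus IFN-gamma mixture; protective hits raise ATP signal compared with cytokine alone wells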", "format": "functional, cell-based", "conditions": "Rattus norvegicus"}, "BJ [8]": {"system": "BJ", "test": "cytotoxicity toward BJ-TERT fibroblasts, dose response, cell-based, RAS-independent, luminescence (AID 1933)", "format": "functional", "conditions": "Homo sapiens"}, "[9]": {"test": "NIH-3T3 fibroblast cytotoxicity, dose response, cytotoxicity control, cell-based, fluorescence, Alamar Blue, secondary assay (AID 2327);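 note: NIH-3T3 mouse fibroblasts cultured with fluconazole at 8 µg/mL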", "format": "functional"}, "HEK293 [10]": {"system": "HEK293", "test": "NOD2 signaling inhibitors in MDP-stimulated cells, cell-based, uHTS, luminescence (AID 2001)", "format": "functional", "conditions": "Homo sapiens"}, "[11]": {"test": "cytotoxicity toward DRD oncogenic fibroblasts, dose response, cell-based, non-viral oncogenic, luminescence (AID 1934)", "format": "functional", "conditions": "Homo sapiens"}, "BJ [12]": {"system": "BJ", "test": "cells", "format": "functional, cell-based", "conditions": "Homo sapiens"}, "[13]": {"test": "C. albicans growth with fluconazole, confirmation, fluorescence, retest (AID 2467)", "format": "functional, cell-based"}, "CAAX prenyl protease 1": {"target": "CAAX prenyl protease 1 (Saccharomyces cerevisiae S288c, UniProt P47154)", "sequence (P47154 whole entry)": "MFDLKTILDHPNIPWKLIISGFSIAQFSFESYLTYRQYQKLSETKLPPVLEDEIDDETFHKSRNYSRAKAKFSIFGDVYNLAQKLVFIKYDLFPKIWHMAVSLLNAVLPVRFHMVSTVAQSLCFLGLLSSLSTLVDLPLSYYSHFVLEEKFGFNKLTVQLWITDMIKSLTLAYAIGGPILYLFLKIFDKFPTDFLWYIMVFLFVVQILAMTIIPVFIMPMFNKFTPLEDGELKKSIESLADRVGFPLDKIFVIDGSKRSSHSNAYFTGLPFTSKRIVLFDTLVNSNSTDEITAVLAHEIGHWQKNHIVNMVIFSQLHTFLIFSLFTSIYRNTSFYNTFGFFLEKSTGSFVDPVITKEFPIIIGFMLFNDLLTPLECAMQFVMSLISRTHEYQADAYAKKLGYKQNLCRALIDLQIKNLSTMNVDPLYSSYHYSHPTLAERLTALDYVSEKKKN", "test": "Ste24 protease inhibitors, dose response, biochemical, S. cerevisiae, plate reader, cherry-pick (AID 488815)"}, "HEK293 [14]": {"system": "HEK293", "test": "cells", "format": "functional, cell-based", "conditions": "Homo sapiens", "remark": "listed apart in the source"}, "CAAX prenyl protease 2": {"target": "T4, CAAX prenyl protease 2 (Saccharomyces cerevisiae S288c, UniProt Q03530)", "T4 sequence (Q03530 whole entry)": "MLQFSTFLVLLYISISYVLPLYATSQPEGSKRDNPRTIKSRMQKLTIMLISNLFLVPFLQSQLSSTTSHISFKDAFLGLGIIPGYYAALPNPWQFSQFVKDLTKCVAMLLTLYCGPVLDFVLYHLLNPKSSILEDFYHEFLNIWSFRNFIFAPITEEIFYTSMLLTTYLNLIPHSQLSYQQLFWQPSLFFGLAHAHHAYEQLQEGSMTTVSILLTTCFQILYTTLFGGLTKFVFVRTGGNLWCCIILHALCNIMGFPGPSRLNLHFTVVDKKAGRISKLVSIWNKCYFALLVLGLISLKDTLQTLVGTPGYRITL", "format": "biochemical"}, "[15]": {"target": "Nucleotide-binding oligomerization domain-containing protein 2 (Homo sapiens, UniProt Q9HC29)", "sequence (Q9HC29 whole entry, the tested form may be a part)": "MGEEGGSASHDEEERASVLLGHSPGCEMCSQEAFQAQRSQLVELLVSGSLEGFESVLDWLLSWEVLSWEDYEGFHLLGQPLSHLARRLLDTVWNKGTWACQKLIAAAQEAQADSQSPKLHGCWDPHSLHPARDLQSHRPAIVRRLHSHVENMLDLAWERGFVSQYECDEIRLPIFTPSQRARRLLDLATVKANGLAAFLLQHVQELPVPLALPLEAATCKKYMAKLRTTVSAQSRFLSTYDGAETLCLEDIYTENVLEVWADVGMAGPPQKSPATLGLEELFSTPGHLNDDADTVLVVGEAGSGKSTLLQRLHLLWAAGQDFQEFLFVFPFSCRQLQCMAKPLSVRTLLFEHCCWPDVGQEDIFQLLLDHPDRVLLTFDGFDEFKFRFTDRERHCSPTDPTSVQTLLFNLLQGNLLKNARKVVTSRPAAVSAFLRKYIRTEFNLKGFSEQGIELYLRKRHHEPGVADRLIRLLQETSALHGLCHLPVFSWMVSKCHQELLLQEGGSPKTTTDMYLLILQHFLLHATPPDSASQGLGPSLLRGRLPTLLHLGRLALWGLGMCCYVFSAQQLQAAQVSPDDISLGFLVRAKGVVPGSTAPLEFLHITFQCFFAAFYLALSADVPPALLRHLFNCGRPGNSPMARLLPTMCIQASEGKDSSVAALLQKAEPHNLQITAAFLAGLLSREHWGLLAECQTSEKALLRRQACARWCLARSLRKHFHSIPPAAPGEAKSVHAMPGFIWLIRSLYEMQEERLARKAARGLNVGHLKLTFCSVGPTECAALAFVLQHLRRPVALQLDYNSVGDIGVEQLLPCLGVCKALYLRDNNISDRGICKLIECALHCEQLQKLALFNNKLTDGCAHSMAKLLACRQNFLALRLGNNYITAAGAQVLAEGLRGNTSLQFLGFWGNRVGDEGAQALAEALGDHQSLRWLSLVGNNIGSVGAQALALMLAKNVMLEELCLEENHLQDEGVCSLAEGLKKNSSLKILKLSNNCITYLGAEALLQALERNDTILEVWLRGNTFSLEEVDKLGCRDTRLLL", "test": "NOD2 signaling inhibitors, cell-based, luminescence, uHTS, HEK293 (AID 1566)", "format": "functional"}, "HEK293 [16]": {"system": "HEK293", "test": "cells", "format": "functional, cell-based", "conditions": "Homo sapiens", "remark": "listed apart in the source"}, "BJ [17]": {"system": "BJ", "test": "cytotoxicity toward Ras-transformed BJeLR fibroblasts, dose response, cell-based, alamar blue fluorescence, cherrypicked samples (AID 2631);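 note: confirmatory dose-response assay in RAS-dependent BJ fibroblasts engineered with TERT, LT and ST, with cytotoxicity read by fluorescence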", "format": "functional", "conditions": "Homo sapiens"}, "[18]": {"test": "cytotoxicity in HEK-293T cells, dose response, cytotoxicity control for TCR NF-kB inhibitor project, luminescence, T-cell screen hits (AID 489026);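 note: cells exposed to compound about 14 hours before the viability readout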", "format": "functional, cell-based"}, "[19]": {"target": "T5, Alkaline phosphatase, tissue-nonspecific isozyme (Homo sapiens, UniProt P05186)", "T5 sequence (P05186 whole entry)": "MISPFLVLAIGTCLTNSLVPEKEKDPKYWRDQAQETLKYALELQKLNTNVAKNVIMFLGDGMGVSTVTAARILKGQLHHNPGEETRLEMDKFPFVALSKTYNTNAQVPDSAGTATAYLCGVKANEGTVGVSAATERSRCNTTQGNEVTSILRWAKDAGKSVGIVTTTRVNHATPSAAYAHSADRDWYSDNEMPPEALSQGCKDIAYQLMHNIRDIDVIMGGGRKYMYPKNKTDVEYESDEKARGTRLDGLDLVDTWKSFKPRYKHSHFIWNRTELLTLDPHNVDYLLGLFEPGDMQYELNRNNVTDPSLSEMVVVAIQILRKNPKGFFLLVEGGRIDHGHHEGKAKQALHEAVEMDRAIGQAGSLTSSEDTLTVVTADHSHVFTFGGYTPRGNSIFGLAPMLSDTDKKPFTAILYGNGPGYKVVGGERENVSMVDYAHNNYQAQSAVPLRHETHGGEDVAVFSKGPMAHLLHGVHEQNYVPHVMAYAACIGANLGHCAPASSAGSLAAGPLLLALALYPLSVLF", "test": "TNAP enzyme activators, dose response, selectivity assay for human IAP activator project, biochemical, TNAP isozyme, human IAP uHTS hits (AID 488886);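 note: potency of compounds raising TNAP activity as a selectivity check on IAP activators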", "format": "functional"}, "[20]": {"target": "T6, Intestinal-type alkaline phosphatase (Homo sapiens, UniProt P09923)", "T6 sequence (P09923 whole entry)": "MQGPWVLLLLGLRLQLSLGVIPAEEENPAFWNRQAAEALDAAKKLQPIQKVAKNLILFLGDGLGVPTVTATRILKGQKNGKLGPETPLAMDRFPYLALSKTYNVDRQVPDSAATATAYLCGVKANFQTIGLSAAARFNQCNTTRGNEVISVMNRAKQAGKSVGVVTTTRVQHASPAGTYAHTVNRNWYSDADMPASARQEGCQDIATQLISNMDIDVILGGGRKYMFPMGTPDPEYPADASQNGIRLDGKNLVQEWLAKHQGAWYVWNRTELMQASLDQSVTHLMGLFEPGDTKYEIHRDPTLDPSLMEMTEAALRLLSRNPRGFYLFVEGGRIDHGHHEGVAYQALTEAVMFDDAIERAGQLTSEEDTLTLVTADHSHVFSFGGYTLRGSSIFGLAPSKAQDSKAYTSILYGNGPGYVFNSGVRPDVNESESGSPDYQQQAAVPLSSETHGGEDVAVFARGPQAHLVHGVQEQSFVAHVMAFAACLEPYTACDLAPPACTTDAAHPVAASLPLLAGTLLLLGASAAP", "test": "human intestinal alkaline phosphatase activators, dose response, biochemical, luminescence, uHTS hits (AID 463120)", "format": "functional"}, "[21]": {"target": "T6, Intestinal-type alkaline phosphatase", "test": "human IAP activators, dose response, biochemical, luminescent, uHTS hits, set 2 (AID 488817);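 note: potency of activators that raise enzyme activity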", "format": "functional"}, "[22]": {"target": "Intestinal-type alkaline phosphatase (Mus musculus, UniProt P24822)", "sequence (P24822 whole entry)": "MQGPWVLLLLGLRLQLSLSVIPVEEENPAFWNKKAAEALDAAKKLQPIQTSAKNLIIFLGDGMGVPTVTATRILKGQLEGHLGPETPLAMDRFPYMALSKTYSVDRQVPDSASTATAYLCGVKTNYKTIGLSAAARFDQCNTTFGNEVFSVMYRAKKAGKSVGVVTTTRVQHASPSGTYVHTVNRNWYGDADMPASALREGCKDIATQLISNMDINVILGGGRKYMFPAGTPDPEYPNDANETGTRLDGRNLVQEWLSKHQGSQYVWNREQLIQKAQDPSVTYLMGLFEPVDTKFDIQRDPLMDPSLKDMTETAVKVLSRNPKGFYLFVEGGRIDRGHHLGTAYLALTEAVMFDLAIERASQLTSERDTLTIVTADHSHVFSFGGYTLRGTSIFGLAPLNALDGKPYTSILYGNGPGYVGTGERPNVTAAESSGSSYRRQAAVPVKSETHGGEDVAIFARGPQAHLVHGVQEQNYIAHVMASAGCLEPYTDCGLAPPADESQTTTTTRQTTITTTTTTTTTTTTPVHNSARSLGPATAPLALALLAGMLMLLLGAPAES", "test": "PubChem AID 488874", "format": "functional"}, "[23]": {"target": "G-protein coupled receptor 55 (Homo sapiens, UniProt Q9Y2T6)", "sequence (Q9Y2T6 whole entry)": "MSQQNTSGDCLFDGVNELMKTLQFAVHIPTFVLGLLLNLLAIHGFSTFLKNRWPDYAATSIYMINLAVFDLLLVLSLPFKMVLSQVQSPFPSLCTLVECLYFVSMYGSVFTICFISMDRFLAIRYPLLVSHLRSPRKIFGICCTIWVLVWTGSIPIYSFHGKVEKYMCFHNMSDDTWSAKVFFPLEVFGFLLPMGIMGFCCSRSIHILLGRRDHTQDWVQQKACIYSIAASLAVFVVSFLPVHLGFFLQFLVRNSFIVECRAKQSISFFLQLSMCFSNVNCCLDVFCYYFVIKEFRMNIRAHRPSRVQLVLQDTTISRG", "test": "GPR55 antagonists, SAR follow-up, counter-screen for GPR35 antagonist project, imaging, image-based (AID 2397)", "format": "functional"}},
  "note": "Calls of active or inactive are those of the source.",
  "data": [
    {"smiles": "CCC(C)(C)c1ccc(OCCCC[n+]2cccc(C)c2C)c(C(C)(C)CC)c1", "values": [
      {"measurement": "IC50", "setting": "[1]", "value": "> 20 µM (inactive)"},
      {"measurement": "EC50", "setting": "BJ [2]", "value": "5.09 µM (active)"},
      {"measurement": "EC50", "setting": "Melanocortin receptor 4", "value": "> 3.3 µM (active)"},
      {"measurement": "EC50", "setting": "HEK293 [3]", "value": "4.56 µM (active)"},
      {"measurement": "IC50", "setting": "HEK293 [4]", "value": "3.2 µM (active)"},
      {"measurement": "AC50", "setting": "[5]", "value": "31.2 µM (active)"},
      {"measurement": "AC50", "setting": "[6]", "value": "5.38 µM (active)"},
      {"measurement": "IC50", "setting": "[7]", "value": "20.2 µM (active)"},
      {"measurement": "AC50", "setting": "INS1", "value": "0.632 µM (active)"},
      {"measurement": "EC50", "setting": "BJ [8]", "value": "3.96 µM (inconclusive)"},
      {"measurement": "EC50", "setting": "[9]", "value": "> 160 µM (inactive)"},
      {"measurement": "IC50", "setting": "HEK293 [10]", "value": "2.48 µM (active)"},
      {"measurement": "EC50", "setting": "[11]", "value": "5.62 µM (active)"},
      {"measurement": "EC50", "setting": "BJ [12]", "value": "4.18 µM (inconclusive)"},
      {"measurement": "EC50", "setting": "[13]", "value": "0.67 µM (active)"},
      {"measurement": "AC50", "setting": "CAAX prenyl protease 1", "value": "9.82 µM (active)"},
      {"measurement": "IC50", "setting": "HEK293 [14]", "value": "6.37 µM (active)"},
      {"measurement": "AC50", "setting": "CAAX prenyl protease 2", "value": "8.03 µM (active)"},
      {"measurement": "EC50", "setting": "[15]", "value": "8.15 µM (active)"},
      {"measurement": "IC50", "setting": "HEK293 [16]", "value": "> 20 µM (inactive)"},
      {"measurement": "EC50", "setting": "BJ [17]", "value": "2.48 µM (active)"},
      {"measurement": "IC50", "setting": "[18]", "value": "56.1 µM (inactive)"}
    ]},
    {"smiles": "COc1ccc(O)c(/C=N/NC(=S)NCCc2ccccc2)c1", "values": [
      {"measurement": "EC50", "setting": "[19]", "value": "26.3 µM (active)"},
      {"measurement": "EC50", "setting": "[20]", "value": "13.1 µM (active)"},
      {"measurement": "EC50", "setting": "[21]", "value": "16 µM (active)"},
      {"measurement": "IC50", "setting": "[22]", "value": "60.7 µM (active)"}
    ]},
    {"smiles": "CCC(Sc1nc2ccsc2c(=O)n1Cc1ccc(C(=O)O)cc1)C(=O)Nc1ccc(Cl)cc1", "note": "(configuration not stated)", "values": [
      {"measurement": "IC50", "setting": "[23]", "value": "> 32 µM (inactive)"}
    ]}
  ]
}
